This note sets out measurements from the Deep4Chem optical property database.

This data set in a line: solvent given as SMILES.
[1] abbreviates: in O=P(c1ccccc1)(c1ccccc1)c1ccc2oc3ccc(P(=O)(c4ccccc4)c4ccccc4)cc3c2c1.

`COc1ccc(C#Cc2ccc(C#N)cc2)cc1`: the fluorescence lifetime stood at 0.33 ns (in C1COCCO1); 0.76 ns (in CC#N); 0.34 ns (in CCCCCC); 0.35 ns (in CCCCCCC); 0.6 ns (in CCCO); 0.38 ns (in CCOC(C)=O). In addition, the fluorescence lifetime is, setting by setting: (in CS(C)=O) 1.1 ns; (in ClC(Cl)Cl) 0.38 ns; (in ClCCl) 0.46 ns.

In turn, `COC(=O)c1[nH]c(-c2ccccc2)c2nnc3ccc(OC)cc3c12` came in with a fluorescence lifetime (in ClCCl) of 2.23 ns.

Consider `CCCCCCC(CCCCCC)N1C(=O)c2cccc3c(-c4ccc(-c5ccc(OC)cc5)cc4)ccc(c23)C1=O`, for which the fluorescence lifetime is 1.35 ns (in CCCCCC); 1.43 ns (in CCCCCCCCCCCCCC); 3.21 ns (in CCCCCCCCCCCO); 1.05 ns (in CCCCO); 1.91 ns (in CN(C)C=O); 1.4 ns (in Cc1ccccc1). Moreover, the fluorescence lifetime (in ClC(Cl)Cl) is 2.93 ns.

Consider `CCOC(=O)C1(O)c2cc3ccc4cccc5ccc(c2C(=O)N1C(C)(C)C)c3c45` (stereo not drawn), for which, under “in ClC(Cl)Cl”, the fluorescence lifetime amounted to 5.11 ns.

As for `CC(=O)[B-]1(C(C)=O)OC(c2ccccc2)=CC(c2ccccc2)=[O+]1`, the fluorescence lifetime turned out to be 1.5 ns (in CC#N) and 2.1 ns (in ClC(Cl)(Cl)Cl).

In the case of `CCOC(=O)C1=CN(Cc2ccccc2)C=C(C(=O)OCC)C1`, the fluorescence lifetime is, setting by setting: (in C1CCOC1) 25.6 ns; (in CO) 28.2 ns.

As to `c1ccc2c(c1)c1ccccc1c1[nH]c(-c3ccc(-c4nc5c6ccccc6c6ccccc6c5[nH]4)cc3)nc21`, the fluorescence lifetime (in CS(C)=O) is 1.25 ns.

Compound `Cc1cc(C(F)(F)F)nc2c1ccc1nc(-c3ccc(Cl)cc3)cn12` gave a fluorescence lifetime (in CC#N) of 8.1 ns; a fluorescence lifetime (in CCCCOC(C)=O) of 6.83 ns; a fluorescence lifetime (in CCOC(C)=O) of 6.72 ns; a fluorescence lifetime (in CO) of 7.89 ns; a fluorescence lifetime (in c1ccccc1) of 6.26 ns.

As for `Cc1cc(C)c2c(c1)c1cc(C)cc(C)c1n2-c1ccc2c(c1)Sc1cc3c(cc1B2c1c(C(C)C)cc(C(C)C)cc1C(C)C)B(c1c(C(C)C)cc(C(C)C)cc1C(C)C)c1ccccc1S3`, the fluorescence lifetime was determined as 0.65 ns (in Cc1ccccc1) and 2 ns under setting [1].

With `N#Cc1cc(C#N)c(-n2c3ccccc3c3ccccc32)cc1-n1c2ccccc2c2ccccc21`, the fluorescence lifetime (in Cc1ccccc1) was determined as 9 ns.

As to `CN1CCN(CCCN2c3ccccc3Sc3ccc(C(F)(F)F)cc32)CC1`, the fluorescence lifetime came out at 2.68 ns (in CC#N), 2.52 ns (in CO) and 3.01 ns (in O).

With `Cc1ccc2c(c1)C1(c3ccccc3-c3ccccc31)c1cc(C)ccc1N2c1ccc(-c2ncccn2)cc1`, under setting [1], the fluorescence lifetime stood at 13 ns.

Regarding `CC(=O)OCCOCCN1C(=O)c2cc(NCCOCCO)c3c4c(cc(NCCOCCO)c(c24)C1=O)C(=O)N(CCOCCOC(C)=O)C3=O`, the fluorescence lifetime reads like this: (in CO) 8 ns; (in ClC(Cl)Cl) 9.6 ns; (in O) 4.4 ns.

Take `F[B-]1(F)n2c(/C=C/c3ccc(C(=C(c4ccccc4)c4ccccc4)c4ccccc4)cc3)ccc2C(c2ccc(C(=C(c3ccccc3)c3ccccc3)c3ccccc3)cc2)=C2C=CC(/C=C/c3ccc(C(=C(c4ccccc4)c4ccccc4)c4ccccc4)cc3)=[N+]21`: for the setting “in C1CCOC1”, the fluorescence lifetime is 3.89 ns.

Turning to `N#Cc1c(-n2c3ccc(Br)cc3c3cc(Br)ccc32)c(-n2c3ccc(Br)cc3c3cc(Br)ccc32)c(C#N)c(-n2c3ccc(Br)cc3c3cc(Br)ccc32)c1-n1c2ccc(Br)cc2c2cc(Br)ccc21`, under “in Cc1ccccc1”, the fluorescence lifetime turned out to be 0.3 ns.

Regarding `Cc1cc(C)c(B2c3cc(C)ccc3N3c4ccc(C)cc4B(c4c(C)cc(C)cc4C)c4cc(C)cc2c43)c(C)c1`, where the note is “in Cc1ccccc1-c1cccc(Oc2cc3c4c(c2)Oc2cc(-c5ccccc5C)ccc2B4c2ccc(-c4ccccc4C)cc2O3)c1”, the fluorescence lifetime turned out to be 6.9 ns.

Consider `CCCCCCCCC1(CCCCCCCC)c2cc(-c3ccc(C#N)cc3)ccc2-c2ccc(-c3ccc(C#N)cc3)cc21`, for which the fluorescence lifetime (in CN(C)C=O) was found to be 0.95 ns.

As to `N#Cc1ccc(-n2c(-c3ccc(-c4ccc(-c5nc6c7ccccc7c7ccccc7c6n5-c5ccc(C#N)c6ccccc56)cc4)cc3)nc3c4ccccc4c4ccccc4c32)c2ccccc12`, the fluorescence lifetime (in ClCCl) was 1.92 ns.

On to `CCN(CC)c1ccc2cc3c([o+]c2c1)/C(=C/Nc1ccccc1)CCC3`, for which the fluorescence lifetime reads like this: (in CCO) 4.05 ns; (in ClC(Cl)Cl) 2.65 ns; (in ClCCl) 4.97 ns.

Turning to `CC(C)c1cccc(C(C)C)c1N1C(=O)c2cc(Cl)c3c4c(Cl)cc5c6c(cc(Cl)c(c7c(Cl)cc(c2c37)C1=O)c64)C(=O)N(c1c(C(C)C)cccc1C(C)C)C5=O`, for the setting “in Cc1ccccc1”, the fluorescence lifetime is 5.11 ns.

The compound `C=C[C@]12CC[C@H](CC1)N=N2` gave a fluorescence lifetime (in CC#N) of 0.56 ns.

In the case of `CN(C)c1ccc(C2=Cc3c4ccccc4c4ccccc4[n+]3[B-](F)(F)O2)cc1`, the fluorescence lifetime (in ClC(Cl)Cl) was found to be 2.6 ns.

For the compound `FC(F)(F)c1ccc(-c2nnc(-c3cc(-c4nnc(-c5ccc(C(F)(F)F)cc5)o4)c(-n4c5ccccc5c5ccccc54)cc3-n3c4ccccc4c4ccccc43)o2)cc1`, the fluorescence lifetime is, setting by setting: (in Cc1ccccc1) 5.1 ns; (in O=P(c1ccccc1)(c1ccccc1)c1ccccc1Oc1ccccc1P(=O)(c1ccccc1)c1ccccc1) 8.6 ns.

Consider `CCC(CC)n1c2ccccc2c2cc3c(cc21)c1ccccc1n3C(CC)CC`, for which the fluorescence lifetime (in ClC(Cl)Cl) amounted to 3.05 ns.

As for `CC(C)n1c(=O)c2cc3ccc4cccc5ccc(c2c1=O)c3c45`, the fluorescence lifetime (in ClC(Cl)Cl) came out at 5.16 ns.

Take `COc1c2ccccc2c(OC)c2c1c1ccc(C)cc1n2C`: the fluorescence lifetime is, setting by setting: (in C1CCCCC1) 20.6 ns; (in CC#N) 25.8 ns; (in CO) 22.9 ns; (in ClCCl) 22 ns.

The compound `CC1=CC(C)=[N+]2C1=Cc1c3ccccc3c(C#Cc3cccs3)n1[B-]2(F)F` gave a fluorescence lifetime (in CCCCCC) of 4.69 ns, a fluorescence lifetime (in CCCCCCCCO) of 3.74 ns, a fluorescence lifetime (in CCOC(C)=O) of 4.07 ns and a fluorescence lifetime (in CN(C)C=O) of 3.46 ns.

For `N#Cc1coc2ccccc2c1=O`, the fluorescence lifetime is, setting by setting: (in C1CCOC1) 0.93 ns; (in C1COCCO1) 3.6 ns; (in CC#N) 2.17 ns; (in CC(C)O) 1.86 ns; (in CCCCO) 0.96 ns; (in CCCO) 2.03 ns. Also, the fluorescence lifetime came to 1.05 ns (in CCOC(C)=O); 1.77 ns (in CN(C)C=O); 0.59 ns (in CO); 1.92 ns (in CS(C)=O); 2.54 ns (in ClC(Cl)Cl); 1.36 ns (in O).

Under “in Cc1ccccc1”, `COc1ccc(C2=C3C(C)=CC(C=Cc4ccc(C(=O)OC5C[C@H]6CCC5(C)C6(C)C)cc4)=[N+]3[B-](F)(F)n3c(/C=C/c4ccc(C(=O)OC5CC6CCC5(C)C6(C)C)cc4)cc(C)c32)cc1` (stereo partly drawn) returned a fluorescence lifetime of 2.6 ns.

Take `CC1(C)c2ccccc2N(c2c(F)cc(-c3nnc(-c4ccccc4)o3)cc2F)c2ccccc21`: under “in Cc1ccccc1”, the fluorescence lifetime came to 8.8 ns.

With `N#CCc1ccccc1-c1cc2ccccc2oc1=O`, the fluorescence lifetime (in ClC(Cl)Cl) turned out to be 1.4 ns.

As to `O=[N+]([O-])c1ccc(F)cc1C1CC(c2cccc3ccccc23)=NN1c1ccccc1` (stereo not drawn), the fluorescence lifetime by setting is: (in C1CCCCC1) 3.08 ns; (in C1CCOC1) 3.76 ns; (in C1COCCO1) 3.77 ns; (in CC#N) 3.81 ns; (in CC(C)O) 2.85 ns; (in CCOC(C)=O) 3.67 ns. The same compound came in with a fluorescence lifetime (in CCOCC) of 3.53 ns; a fluorescence lifetime (in CO) of 2.86 ns; a fluorescence lifetime (in Cc1ccccc1) of 3.29 ns; a fluorescence lifetime (in ClC(Cl)Cl) of 3.68 ns; a fluorescence lifetime (in O) of 1.4 ns.

For `CCC[Si](CCC)(CCC)c1cc2ccc3cccc4ccc(c1C(=O)NC(C)(C)C)c2c34`, the fluorescence lifetime (in ClC(Cl)Cl) is 6.91 ns.

In turn, `N#C/C(=C(/C#N)c1ccc(-c2ccncc2)cc1)c1ccc(-c2ccncc2)cc1` registered a fluorescence lifetime (in ClCCl) of 0.1 ns.

For the setting “in C1CCCCC1”, `COc1ccc([Si](C)(C)C)c2ccccc12` gave a fluorescence lifetime of 10 ns.

Take `c1ccc(Cn2c3sccc3c3c4nsnc4c4c5ccsc5n(Cc5ccccc5)c4c32)cc1`: the fluorescence lifetime is, setting by setting: (in Cc1ccccc1) 13.5 ns; (in ClCCl) 16.2 ns.

The compound `CNCCCC1c2ccccc2C=Cc2ccccc21` registered a fluorescence lifetime (in CC#N) of 2.41 ns, a fluorescence lifetime (in CO) of 2.38 ns and a fluorescence lifetime (in O) of 2.56 ns.

Compound `c1ccc(-c2cc(-c3ccc4ccc5c(-c6ccnc(-c7ccccn7)c6)ccc6ccc3c4c65)ccn2)nc1` returned a fluorescence lifetime (in C1CCOC1) of 2 ns; a fluorescence lifetime (in CC#N) of 2.2 ns; a fluorescence lifetime (in CCC#N) of 2.2 ns; a fluorescence lifetime (in CCCC#N) of 2.1 ns; a fluorescence lifetime (in CCCCCC) of 2.6 ns; a fluorescence lifetime (in CCCO) of 2.1 ns. Moreover, the fluorescence lifetime is 2.1 ns (in CCO), 1.7 ns (in CO) and 1.8 ns (in Cc1ccccc1).

Take `COC(=O)C(NC(=O)OC(C)(C)C)c1ccc2oc(-c3cc(OC)c(OC)c(OC)c3)nc2c1` (stereo not drawn): the fluorescence lifetime reads like this: (in CC1CCCCC1) 1.01 ns; (in CC#N) 1.2 ns; (in CO) 1.28 ns.

The compound `ClP1(Cl)=N[P@](Cl)(Oc2ccc3ccc4cccc5ccc2c3c45)=N[P@@](Cl)(Oc2ccc3ccc4cccc5ccc2c3c45)=N1` showed a fluorescence lifetime (in ClCCl) of 3.02 ns.

In the case of `COc1cc(/C=C/c2nc(N3CCOCC3)c3c([n+]2[O-])CCCC3)cc(OC)c1OC`, the fluorescence lifetime (in ClCCl) was 8.5 ns.

In the case of `O=P1(c2ccccc2)c2ccc(N3c4ccccc4Sc4ccccc43)cc2-c2cc(N3c4ccccc4Sc4ccccc43)ccc21`, under “in c1ccc2c(c1)c1ccccc1n2-c1ccc(-c2ccc(-n3c4ccccc4c4ccccc43)cc2)cc1”, the fluorescence lifetime stood at 26 ns.

For `C(=C\c1c2ccccc2cc2ccccc12)/c1cnc2ccccc2c1`, the fluorescence lifetime (in CC1CCCCC1) was found to be 3.2 ns and the fluorescence lifetime (in CC#N) turned out to be 3 ns.

`CN(C)c1ccc(C(=O)c2ccccc2)cc1`: the fluorescence lifetime is, setting by setting: (in C1CCCCC1) 0.1 ns; (in CC#N) 0.16 ns; (in CO) 0.0052 ns; (in CS(C)=O) 0.1 ns; (in c1ccccc1) 0.9 ns.

Under “in C1CCOC1”, `CC(=O)c1ccc(-c2ccc3c(c2)C(=O)c2cc(-c4ccc(C(C)=O)cc4)ccc2-3)cc1` had a fluorescence lifetime of 1.2 ns.
